Measured values as given in patent publication US9957274B2, “Indane inhibitors of EED and methods of their use” (AbbVie Inc., priority 2016, dated 2018).

Tests used:
[1] = tested on: H3K27me3 in G401 cells; experiment: H3K27me3 AlphaLISA assay in G401 cells; format: cell-based; details: Homo sapiens, G-401, 144 h, 6 days with compound
Protocol: G401 cells (ATCC catalog # CRL-1441) were maintained in McCoy's 5a medium (ATCC) supplemented with 10% heat-inactivated FBS (HyClone) at 37° C. in a humidified CO2 incubator. OCILY19 cells (DSMZ catalog #ACC 528) were maintained in IMDM (Invitrogen) supplemented with 10% human serum (Sigma) at 37° C. in a humidified CO2 incubator. 5,000 cells were plated into each well of 96-well Corning CellBing cell culture plates and incubated overnight at 37° C. in a humidified CO2 incubator. […] The cell culture plates were then incubated for 6 more days. H3K27me3 AlphaLISA assay was performed on the cell culture samples by using AlphaLISAR® H3K27me3 Cellular Detection Kit (PerkinElmer) and 96-well white half-area plates (PerkinElmer).

[2] = tested on: H3K27me3 in OCILY19 cells; experiment: H3K27me3 AlphaLISA assay in OCILY19 cells; format: cell-based; details: Homo sapiens, OCI-LY19, 144 h, 6 days with compound, read-out: OCILY-19 IC50
Protocol: 5,000 cells were plated into each well of 96-well Corning CellBing cell culture plates and incubated overnight at 37° C. in a humidified CO2 incubator. […] The cell culture plates were then incubated for 6 more days. H3K27me3 AlphaLISA assay was performed on the cell culture samples by using AlphaLISAR® H3K27me3 Cellular Detection Kit (PerkinElmer) and 96-well white half-area plates (PerkinElmer).

[3] = tested on: Pfeiffer cells; experiment: CTG cell viability assay (CellTiter-Glo); format: cell-based; details: Homo sapiens, 240 h; Pfeiffer cells, 10 days with compound, CellTiter-Glo; read-out: Cell Proliferation IC50
Protocol: 1,000 cells were plated into each well of 96-well Corning CellBing cell culture plates and incubated overnight at 37° C. in a humidified CO2 incubator. […] The cell culture plates were then incubated for 10 more days. CTG cell viability assay was performed on the cell culture samples by using CellTiter-Glo® Luminescent Cell Viability Assay Kit (Promega).

[4] = target: EED (Homo sapiens, UniProt O75530); experiment: EED TR-FRET Binding Assay (modified LanthaScreen competition assay)
EED, sequence (O75530 whole entry): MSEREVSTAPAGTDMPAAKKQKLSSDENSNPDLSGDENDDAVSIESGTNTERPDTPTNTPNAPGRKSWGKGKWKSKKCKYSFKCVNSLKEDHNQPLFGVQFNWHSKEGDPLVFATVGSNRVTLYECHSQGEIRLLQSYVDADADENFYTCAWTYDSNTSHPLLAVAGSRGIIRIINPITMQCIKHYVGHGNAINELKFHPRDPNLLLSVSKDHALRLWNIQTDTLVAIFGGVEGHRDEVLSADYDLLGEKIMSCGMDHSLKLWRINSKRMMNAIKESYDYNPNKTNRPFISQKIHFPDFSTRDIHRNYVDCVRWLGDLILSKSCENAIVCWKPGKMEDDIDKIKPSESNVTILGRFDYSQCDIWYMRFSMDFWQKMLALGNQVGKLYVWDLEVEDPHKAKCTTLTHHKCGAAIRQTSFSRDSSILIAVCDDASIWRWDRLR
Summary of the method: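 Competition binding in a modified LanthaScreen format, in 20 mM Tris-HCl pH 7.5, 200 mM NaCl, 0.01% Tween-20, 10 uM DTT and 0.05% BSA. Reactions ran 1 hour at 25° C before TR-FRET detection.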

CN(C)[C@H]1CN(C2CCc3cccc(F)c32)C[C@@H]1c1cn(C)c2cc(C(=O)N3CC[C@@H](O)C3)ccc12 (mixture of isomers) [Example 112, rac-{3-[(3S,4R)-4-(dimethylamino)-1-(7-fluoro-2,3-dihydro-1H-inden-1-yl)pyrrolidin-3-yl]-1-methyl-1H-indol-6-yl}[(3R)-3-hydroxypyrrolidin-1-yl]methanone]
IC50 [1]: 70.2 nM
IC50 [2]: 446 nM
IC50 [3]: 133 nM
IC50 [4]: 1.2 nM

CN(C)[C@H]1CN(C2CCc3cccc(F)c32)C[C@@H]1c1cn(C)c2c(C(=O)N3C[C@H](O)[C@@H](O)C3)cccc12 (mixture of isomers) [Example 113, rac-[(3S,4S)-3,4-dihydroxypyrrolidin-1-yl]{3-[(3S,4R)-4-(dimethylamino)-1-(7-fluoro-2,3-dihydro-1H-inden-1-yl)pyrrolidin-3-yl]-1-methyl-1H-indol-7-yl}methanone]
IC50 [1]: 799 nM
IC50 [2]: 3280 nM
IC50 [3]: 399 nM
IC50 [4]: 0.679 nM

CN(C)[C@@H]1CN(C2CCc3cccc(F)c32)C[C@H]1c1ccc(Br)cc1 (mixture of isomers) [Example 6, rac-(3S,4R)-4-(4-bromophenyl)-1-(7-fluoro-2,3-dihydro-1H-inden-1-yl)-N,N-dimethylpyrrolidin-3-amine]
IC50 [1]: 244 nM
IC50 [2]: 1760 nM
IC50 [3]: 3300 nM
IC50 [4]: 4.77 nM

CN(C)[C@@H]1CN(C2CCc3cccc(F)c32)C[C@H]1c1ccc(Cl)cc1 (mixture of isomers) [Example 7, rac-(3S,4R)-4-(4-chlorophenyl)-1-(7-fluoro-2,3-dihydro-1H-inden-1-yl)-N,N-dimethylpyrrolidin-3-amine]
IC50 [1]: 3190 nM
IC50 [2]: 3120 nM
IC50 [3]: 2340 nM
IC50 [4]: 6.08 nM

CN(C)[C@@H]1CN([C@@H]2CCc3cccc(F)c32)C[C@H]1c1ccc(C#N)cc1 (racemic) [Example 19, rac-4-{(3R,4S)-4-(dimethylamino)-1-[(1R)-7-fluoro-2,3-dihydro-1H-inden-1-yl]pyrrolidin-3-yl}benzonitrile]
IC50 [1]: 725 nM
IC50 [2]: 597 nM
IC50 [3]: 654 nM
IC50 [4]: 12.5 nM

COC(=O)c1ccc([C@@H]2CN(C3CCc4cccc(F)c43)C[C@H]2N(C)C)cc1 (mixture of isomers) [Example 22, rac-methyl 4-[(3R,4S)-4-(dimethylamino)-1-(7-fluoro-2,3-dihydro-1H-inden-1-yl)pyrrolidin-3-yl]benzoate]
IC50 [1]: 449 nM
IC50 [2]: 944 nM
IC50 [3]: 422 nM
IC50 [4]: 2.85 nM

COc1ccc([C@@H]2CN(C3CCc4cccc(F)c43)C[C@H]2N(C)C)cc1OC (mixture of isomers) [Example 23, rac-(3S,4R)-4-(3,4-dimethoxyphenyl)-1-(7-fluoro-2,3-dihydro-1H-inden-1-yl)-N,N-dimethylpyrrolidin-3-amine]
IC50 [1]: 198 nM
IC50 [2]: 393 nM
IC50 [3]: 921 nM
IC50 [4]: 2.72 nM

CCS(=O)(=O)N1CCN(c2ccc([C@H]3CN(C4CCc5cccc(F)c54)C[C@@H]3N(C)C)cc2)CC1 (mixture of isomers) [Example 49, rac-(3R,4S)-4-{4-[4-(ethanesulfonyl)piperazin-1-yl]phenyl}-1-(7-fluoro-2,3-dihydro-1H-inden-1-yl)-N,N-dimethylpyrrolidin-3-amine]
IC50 [1]: 182 nM
IC50 [2]: 200 nM
IC50 [3]: 194 nM
IC50 [4]: 0.739 nM

CN(C)C(=O)N1CCN(c2ccc([C@H]3CN(C4CCc5cccc(F)c54)C[C@@H]3N(C)C)cc2)CC1 (mixture of isomers) [Example 63, rac-4-{4-[(3S,4R)-4-(dimethylamino)-1-(7-fluoro-2,3-dihydro-1H-inden-1-yl)pyrrolidin-3-yl]phenyl}-N,N-dimethylpiperazine-1-carboxamide]
IC50 [1]: 55.6 nM
IC50 [2]: 191 nM
IC50 [3]: 72.7 nM
IC50 [4]: 1.47 nM

CN(C)[C@@H]1CN(C2CCc3cccc(F)c32)C[C@H]1c1ccc2c(c1)OCO2 (mixture of isomers) [Example 65, rac-(3S,4R)-4-(2H-1,3-benzodioxol-5-yl)-1-(7-fluoro-2,3-dihydro-1H-inden-1-yl)-N,N-dimethylpyrrolidin-3-amine]
IC50 [1]: 576 nM
IC50 [2]: 306 nM
IC50 [3]: 948 nM
IC50 [4]: 1.75 nM

CN(C)[C@H]1CN(C2CCc3cccc(F)c32)C[C@@H]1c1ccc(-c2cnn(C)c2)cc1 (mixture of isomers) [Example 70, rac-(3R,4S)-1-(7-fluoro-2,3-dihydro-1H-inden-1-yl)-N,N-dimethyl-4-[4-(1-methyl-1H-pyrazol-4-yl)phenyl]pyrrolidin-3-amine]
IC50 [1]: 129 nM
IC50 [2]: 248 nM
IC50 [3]: 266 nM
IC50 [4]: 0.853 nM

CN(C)[C@H]1CN(C2CCc3cccc(F)c32)C[C@@H]1c1ccc(-c2cnn(CC(N)=O)c2)cc1 (mixture of isomers) [Example 71, rac-2-(4-{4-[(3S,4R)-4-(dimethylamino)-1-(7-fluoro-2,3-dihydro-1H-inden-1-yl)pyrrolidin-3-yl]phenyl}-1H-pyrazol-1-yl)acetamide]
IC50 [1]: 52.1 nM
IC50 [2]: 155 nM
IC50 [3]: 108 nM
IC50 [4]: 1.13 nM

CNC(=O)Cn1cc(-c2ccc([C@H]3CN(C4CCc5cccc(F)c54)C[C@@H]3N(C)C)cc2)cn1 (mixture of isomers) [Example 72, rac-2-(4-{4-[(3S,4R)-4-(dimethylamino)-1-(7-fluoro-2,3-dihydro-1H-inden-1-yl)pyrrolidin-3-yl]phenyl}-1H-pyrazol-1-yl)-N-methylacetamide]
IC50 [1]: 39.9 nM
IC50 [2]: 132 nM
IC50 [3]: 121 nM
IC50 [4]: 0.923 nM

CN(C)[C@@H]1CN(C2CCc3cccc(F)c32)C[C@H]1c1ccc(N2CCN(c3ccncn3)CC2)cc1 (mixture of isomers) [Example 74, rac-(3S,4R)-1-(7-fluoro-2,3-dihydro-1H-inden-1-yl)-N,N-dimethyl-4-{4-[4-(pyrimidin-4-yl)piperazin-1-yl]phenyl}pyrrolidin-3-amine]
IC50 [1]: 185 nM
IC50 [2]: 363 nM
IC50 [3]: 107 nM
IC50 [4]: 0.633 nM

CN(C)[C@@H]1CN(C2CCc3cccc(F)c32)C[C@H]1c1ccc(N2CCN(c3ccccn3)CC2)cc1 (mixture of isomers) [Example 75, rac-(3S,4R)-1-(7-fluoro-2,3-dihydro-1H-inden-1-yl)-N,N-dimethyl-4-{4-[4-(pyridin-2-yl)piperazin-1-yl]phenyl}pyrrolidin-3-amine]
IC50 [1]: 2300 nM
IC50 [2]: 3170 nM
IC50 [3]: 1760 nM
IC50 [4]: 0.906 nM

CN(C)C(=O)c1ccc2c([C@H]3CN(C4CCc5cccc(F)c54)C[C@@H]3N(C)C)cn(C)c2c1 (mixture of isomers) [Example 87, rac-3-[(3S,4R)-4-(dimethylamino)-1-(7-fluoro-2,3-dihydro-1H-inden-1-yl)pyrrolidin-3-yl]-N,N,1-trimethyl-1H-indole-6-carboxamide]
IC50 [1]: 62.6 nM
IC50 [2]: 178 nM
IC50 [3]: 94.1 nM
IC50 [4]: 0.481 nM

CN(C)[C@H]1CN(C2CCc3cccc(F)c32)C[C@@H]1c1cn(C)c2c(C(=O)N3CC(F)C3)cccc12 (mixture of isomers) [Example 103, rac-{3-[(3S,4R)-4-(dimethylamino)-1-(7-fluoro-2,3-dihydro-1H-inden-1-yl)pyrrolidin-3-yl]-1-methyl-1H-indol-7-yl}(3-fluoroazetidin-1-yl)methanone]
IC50 [1]: 30.6 nM
IC50 [2]: 183 nM
IC50 [3]: 64.8 nM
IC50 [4]: 1.01 nM
